Assay results from patent US20070043084A1, “1,2-Diarylimidazoles useful as inhibitors of cox” (Astellas Pharma Inc., priority 2003, published 2007).

Experiments:
[1] = system: adjuvant arthritis in rats; experiment: Analgesic activity: effect on adjuvant arthritis in rats (Randall-Selitto pain threshold); type: in vivo, Lewis rats; details: dose 3.2 mg/kg; ratio of threshold pressure of treated vs non-treated arthritic rats, 2 hrs after administration; ratio of 1.5 = effective dose
COX-I = biological target: T1, COX-I (Homo sapiens, UniProt P23219); experiment: Whole blood assay for COX-I (TXB2 production); type: cell-based; details: 1 hr at 37° C.
T1 construct: Fresh blood was collected by syringe without anticoagulants from volunteers with consent; from tissue; host or cells: fresh human whole blood from volunteers, no anticoagulant, left to clot
Method: [B] Inhibiting Activity Against COX-I and COX-II (Whole Blood Assay): (i) Test Method: Whole Blood Assay for COX-I
Fresh blood was collected by syringe without anticoagulants from volunteers with consent. The subjects had no apparent inflammatory conditions and had not taken any medication for at least 7 days prior to blood collection.
500 μl aliquots of human whole blood were immediately incubated with 2 μl of either dimethyl sulfoxide vehicle or a test compound at final concentrations for 1 hr at 37° C. to allow the blood to clot. Appropriate treatments (no incubation) were used as blanks. At the end of the incubation, 5 μl of 250 mM Indomethacin was added to stop the reaction. The blood was centrifuged at 6000×g for 5 min at 4° C. to obtain serum. A 100 μl aliquot of serum was mixed with 400 μl methanol for protein precipitation. The supernatant was obtained by centrifuging at 6000×g for 5 min at 4° C. and was assayed for TXB2 using an enzyme immunoassay kit according to the manufacturer's procedure. For a test compound, the results were expressed as percent inhibition of thromboxane B2(TXB2) production relative to control incubations containing dimethyl sulfoxide vehicle.
The data were analyzed by that a test compound at the indicated concentrations was changed log value and was applied simple linear regression. IC50 value was calculated by least squares method.

COX-II = biological target: T2, COX-II (Homo sapiens, UniProt P35354); experiment: Whole blood assay for COX-II (LPS-induced PGE2 production); type: cell-based; details: lipopolysaccharide 24 hrs at 37° C.
T2 construct: lipopolysaccharide for 24 hrs at 37° C. for induction of COX-II; from tissue; host or cells: fresh heparinized human whole blood from volunteers, stimulated with LPS for 24 hrs
T2 sequence (P35354 18-604): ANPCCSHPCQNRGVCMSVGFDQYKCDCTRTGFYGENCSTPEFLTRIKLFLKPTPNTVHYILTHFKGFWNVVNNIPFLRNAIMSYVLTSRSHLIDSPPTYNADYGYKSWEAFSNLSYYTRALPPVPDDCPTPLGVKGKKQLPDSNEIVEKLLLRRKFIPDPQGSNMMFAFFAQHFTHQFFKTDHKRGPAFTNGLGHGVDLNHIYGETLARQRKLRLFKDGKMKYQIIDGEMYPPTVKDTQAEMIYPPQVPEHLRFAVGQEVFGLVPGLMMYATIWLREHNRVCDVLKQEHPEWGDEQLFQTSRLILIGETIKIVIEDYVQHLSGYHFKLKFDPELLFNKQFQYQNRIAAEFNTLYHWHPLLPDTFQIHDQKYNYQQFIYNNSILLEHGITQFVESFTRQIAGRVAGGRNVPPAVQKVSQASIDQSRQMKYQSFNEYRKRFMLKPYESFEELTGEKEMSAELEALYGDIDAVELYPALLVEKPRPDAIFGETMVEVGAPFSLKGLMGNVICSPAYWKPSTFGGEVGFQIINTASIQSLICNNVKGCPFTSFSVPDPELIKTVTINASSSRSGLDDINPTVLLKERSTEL
Method: Whole Blood Assay for COX-II
Fresh blood was collected in heparinized tubes by syringe from volunteers with consent. The subjects had no apparent inflammatory conditions and had not taken any medication for at least 7 days prior to blood collection.
500 μl aliquots of human whole blood were incubated with either 2 μl dimethyl sulfoxide vehicle or 2 μl of a test compound at final concentrations for 15 min at 37° C. This was followed by incubation of the blood with […] of 5 mg/ml lipopolysaccharide for 24 hrs at 37° C. for induction of COX-II. Appropriate PBS treatments (no LPS) were used as blanks. At the end of the incubation, the blood was centrifuged at 6000×g for 5 min at 4° C. to obtain plasma. A 100 μl aliquot of plasma was mixed with 400 μl methanol for protein precipitation. The supernatant was obtained by centrifuging at 6000×g for 5 min at 4° C. and was assayed for prostaglandin E2 (PGE2) using a radioimmunoassay kit after conversion of PGE2 to its methyl oximate derivative according to the manufacturer's procedure.
For a test compound, the results were expressed as percent inhibition of […] production relative to control incubations containing dimethyl sulfoxide vehicle. The data were analyzed by that a test compound at the indicated concentrations was changed log value and was applied simple linear regression. IC50 value was calculated by least squares method.

T1 sequence (P23219 24-599): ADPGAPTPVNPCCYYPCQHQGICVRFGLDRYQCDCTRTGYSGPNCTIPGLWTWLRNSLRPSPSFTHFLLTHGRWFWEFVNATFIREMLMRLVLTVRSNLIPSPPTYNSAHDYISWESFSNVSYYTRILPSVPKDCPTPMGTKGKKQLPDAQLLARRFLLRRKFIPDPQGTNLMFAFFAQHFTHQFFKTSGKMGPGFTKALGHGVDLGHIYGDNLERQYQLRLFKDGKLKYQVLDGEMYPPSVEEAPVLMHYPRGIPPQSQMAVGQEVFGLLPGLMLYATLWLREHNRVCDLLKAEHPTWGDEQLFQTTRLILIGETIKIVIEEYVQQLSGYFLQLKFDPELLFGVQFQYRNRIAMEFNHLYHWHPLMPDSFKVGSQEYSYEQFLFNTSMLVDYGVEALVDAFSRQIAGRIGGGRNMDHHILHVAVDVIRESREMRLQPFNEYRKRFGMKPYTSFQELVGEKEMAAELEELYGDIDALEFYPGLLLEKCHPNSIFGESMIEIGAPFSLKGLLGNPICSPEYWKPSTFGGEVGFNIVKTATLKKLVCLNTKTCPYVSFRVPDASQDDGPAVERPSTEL

| IC50 (COX-I) [nM] | IC50 (COX-II) [nM] | melting point [°C] | SMILES | The coefficient of analgesic [1] |
| --- | --- | --- | --- | --- |
| < 10 | ≥ 100 | 146 to 148 | COc1ccc(-c2nc(C(F)(F)F)cn2-c2ccc(C#N)cc2)cc1 [Example 24, 1-(4-Cyanophenyl)-2-(4-methoxyphenyl)-4-trifluoromethyl-1H-imidazole] | >1.5 |
| < 10 | ≥ 100 | 160 to 161 | COc1ccc(-c2nc(C(F)F)cn2-c2ccc(C#N)cc2)cn1 [Example 40, 1-(4-Cyanophenyl)-4-difluoromethyl-2-(2-methoxy-5-pyridinyl)-1H-imidazole] | >1.5 |
| < 10 | ≥ 100 | 106 to 107 | COc1ccc(-n2cc(C(F)F)nc2-c2ccc(OC)nc2)cc1 [Example 43, 4-Difluoromethyl-1-(4-methoxyphenyl)-2-(2-methoxy-5-pyridinyl)-1H-imidazole] | >1.5 |
